Columns and labels:
Assay in all cases: KINOMEscan
Assay type in all cases: binding
YANK3 = target: T1, YANK3 (Homo sapiens, UniProt Q86UX6)
T1 construct: purchased Eurofins DiscoverX, LLC; host or cells: E. coli BL21-derived host (T7 phage) or HEK-293

PKACα = target: T2, PKACα (Homo sapiens, UniProt P17612)
T2 construct: purchased Eurofins DiscoverX, LLC; host or cells: E. coli BL21-derived host (T7 phage) or HEK-293

[1] = target: T3, JAK3(JH1domain-catalytic) (Homo sapiens, UniProt P52333)
T3 construct: JAK3(JH1domain-; purchased Eurofins DiscoverX, LLC; host or cells: E. coli (T7 phage) or HEK-293

CSF1R = target: T4, CSF1R (Homo sapiens, UniProt P07333)
T4 construct: purchased Eurofins DiscoverX, LLC; host or cells: E. coli (T7 phage) or HEK-293

SRC = target: T5, SRC (Homo sapiens, UniProt P12931)
T5 construct: purchased Eurofins DiscoverX, LLC; host or cells: E. coli BL21-derived host (T7 phage) or HEK-293

IGF1R = target: T6, IGF1R (Homo sapiens, UniProt P08069)
T6 construct: purchased Eurofins DiscoverX, LLC; host or cells: E. coli (T7 phage) or HEK-293

MAPKAPK2 = target: T7, MAPKAPK2 (Homo sapiens, UniProt P49137)
T7 construct: purchased Eurofins DiscoverX, LLC; host or cells: E. coli (BL21-derived, T7 phage) or HEK-293

ADCK3 = target: T8, ADCK3 (Homo sapiens, UniProt Q8NI60)
T8 construct: purchased Eurofins DiscoverX, LLC; host or cells: E. coli BL21-derived (T7 phage) or HEK-293

EPHA2 = target: T9, EPHA2 (Homo sapiens, UniProt P29317)
T9 construct: purchased Eurofins DiscoverX, LLC; host or cells: E. coli (T7 phage) or HEK-293

MARK3 = target: T10, MARK3 (Homo sapiens, UniProt P27448)
T10 construct: purchased Eurofins DiscoverX, LLC; host or cells: E. coli (BL21-derived, T7 phage) or HEK-293

ERK1 = target: T11, ERK1 (Homo sapiens, UniProt P27361)
T11 construct: purchased Eurofins DiscoverX, LLC; host or cells: E. coli (T7 phage) or HEK-293

RAF1 = target: T12, RAF1 (Homo sapiens, UniProt P04049)
T12 construct: purchased Eurofins DiscoverX, LLC; host or cells: E. coli BL21-derived host (T7 phage) or HEK-293

PIM1 = target: T13, PIM1 (Homo sapiens, UniProt P11309)
T13 construct: purchased Eurofins DiscoverX, LLC; host or cells: E. coli BL21-derived host (T7 phage) or HEK-293

KIT(V559D,T670I) = target: T14, KIT(V559D,T670I) (Homo sapiens, UniProt P10721, T670I/V559D)
T14 construct: purchased Eurofins DiscoverX, LLC; host or cells: E. coli (BL21-derived, T7 phage) or HEK-293

ABL1-phosphorylated = target: T15, ABL1-phosphorylated (Homo sapiens, UniProt P00519)
T15 construct: purchased Eurofins DiscoverX, LLC; host or cells: E. coli BL21-derived (T7 phage) or HEK-293

ALK = target: T16, ALK (Homo sapiens, UniProt Q9UM73)
T16 construct: purchased Eurofins DiscoverX, LLC; host or cells: E. coli BL21-derived (T7 phage) or HEK-293

PLK1 = target: T17, PLK1 (Homo sapiens, UniProt P53350)
T17 construct: purchased Eurofins DiscoverX, LLC; host or cells: E. coli BL21-derived host (T7 phage) or HEK-293

ZAP70 = target: T18, ZAP70 (Homo sapiens, UniProt P43403)
T18 construct: purchased Eurofins DiscoverX, LLC; host or cells: E. coli BL21-derived host (T7 phage) or HEK-293
T18 sequence (P43403 1-619): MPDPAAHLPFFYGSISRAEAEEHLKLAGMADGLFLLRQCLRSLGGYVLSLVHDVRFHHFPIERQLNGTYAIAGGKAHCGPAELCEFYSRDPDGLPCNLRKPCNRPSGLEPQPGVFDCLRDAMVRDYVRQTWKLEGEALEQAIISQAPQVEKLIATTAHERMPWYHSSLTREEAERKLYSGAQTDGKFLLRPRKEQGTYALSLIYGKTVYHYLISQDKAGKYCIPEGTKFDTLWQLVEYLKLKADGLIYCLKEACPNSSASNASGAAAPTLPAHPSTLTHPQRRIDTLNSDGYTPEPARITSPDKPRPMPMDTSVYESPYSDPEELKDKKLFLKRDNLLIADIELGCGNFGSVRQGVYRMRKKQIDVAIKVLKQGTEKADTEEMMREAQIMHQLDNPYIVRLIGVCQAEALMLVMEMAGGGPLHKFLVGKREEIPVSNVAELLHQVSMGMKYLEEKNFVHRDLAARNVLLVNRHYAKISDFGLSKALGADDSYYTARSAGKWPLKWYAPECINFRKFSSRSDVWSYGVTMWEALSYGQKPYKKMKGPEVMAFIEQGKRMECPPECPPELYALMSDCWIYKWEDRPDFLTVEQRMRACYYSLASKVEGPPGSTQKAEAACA

MEK2 = target: T19, MEK2 (Homo sapiens, UniProt P36507)
T19 construct: purchased Eurofins DiscoverX, LLC; host or cells: E. coli (BL21-derived, T7 phage) or HEK-293

MLK1 = target: T20, MLK1 (Homo sapiens, UniProt P80192)
T20 construct: purchased Eurofins DiscoverX, LLC; host or cells: E. coli (BL21-derived, T7 phage) or HEK-293

T6 sequence (P08069 31-1367): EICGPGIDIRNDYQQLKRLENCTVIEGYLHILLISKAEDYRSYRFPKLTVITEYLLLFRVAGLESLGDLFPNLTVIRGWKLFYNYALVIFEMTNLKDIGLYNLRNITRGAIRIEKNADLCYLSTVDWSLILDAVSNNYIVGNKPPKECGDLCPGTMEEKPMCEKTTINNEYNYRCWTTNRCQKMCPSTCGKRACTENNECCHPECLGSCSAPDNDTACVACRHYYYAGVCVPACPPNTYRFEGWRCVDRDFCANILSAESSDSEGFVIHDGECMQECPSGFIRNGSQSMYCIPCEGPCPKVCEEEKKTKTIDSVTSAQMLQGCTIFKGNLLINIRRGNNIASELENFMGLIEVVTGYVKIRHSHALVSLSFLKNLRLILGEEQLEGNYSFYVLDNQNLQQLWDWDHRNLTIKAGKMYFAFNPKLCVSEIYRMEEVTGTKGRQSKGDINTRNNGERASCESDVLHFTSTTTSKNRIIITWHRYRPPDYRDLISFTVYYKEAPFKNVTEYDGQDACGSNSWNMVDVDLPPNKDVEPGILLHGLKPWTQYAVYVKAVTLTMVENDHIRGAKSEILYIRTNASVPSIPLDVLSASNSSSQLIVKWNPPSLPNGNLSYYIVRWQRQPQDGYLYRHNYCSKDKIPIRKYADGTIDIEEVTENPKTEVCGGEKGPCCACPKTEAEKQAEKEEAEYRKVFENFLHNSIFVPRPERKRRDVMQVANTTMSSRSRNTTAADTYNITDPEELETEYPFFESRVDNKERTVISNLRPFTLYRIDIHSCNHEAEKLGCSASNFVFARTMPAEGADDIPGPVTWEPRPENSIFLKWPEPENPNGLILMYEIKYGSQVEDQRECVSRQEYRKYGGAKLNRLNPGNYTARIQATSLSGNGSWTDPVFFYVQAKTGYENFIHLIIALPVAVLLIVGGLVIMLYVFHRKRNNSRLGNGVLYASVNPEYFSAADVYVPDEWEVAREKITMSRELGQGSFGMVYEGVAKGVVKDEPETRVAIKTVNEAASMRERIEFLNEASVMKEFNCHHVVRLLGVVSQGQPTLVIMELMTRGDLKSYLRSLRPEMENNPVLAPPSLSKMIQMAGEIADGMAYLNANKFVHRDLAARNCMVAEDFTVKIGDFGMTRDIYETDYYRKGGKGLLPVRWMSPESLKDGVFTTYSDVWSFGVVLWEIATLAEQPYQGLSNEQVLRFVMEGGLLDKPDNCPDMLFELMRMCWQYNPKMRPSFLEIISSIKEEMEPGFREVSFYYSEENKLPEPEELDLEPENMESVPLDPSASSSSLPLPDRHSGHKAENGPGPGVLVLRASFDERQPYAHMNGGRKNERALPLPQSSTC
T15 sequence (P00519 whole entry): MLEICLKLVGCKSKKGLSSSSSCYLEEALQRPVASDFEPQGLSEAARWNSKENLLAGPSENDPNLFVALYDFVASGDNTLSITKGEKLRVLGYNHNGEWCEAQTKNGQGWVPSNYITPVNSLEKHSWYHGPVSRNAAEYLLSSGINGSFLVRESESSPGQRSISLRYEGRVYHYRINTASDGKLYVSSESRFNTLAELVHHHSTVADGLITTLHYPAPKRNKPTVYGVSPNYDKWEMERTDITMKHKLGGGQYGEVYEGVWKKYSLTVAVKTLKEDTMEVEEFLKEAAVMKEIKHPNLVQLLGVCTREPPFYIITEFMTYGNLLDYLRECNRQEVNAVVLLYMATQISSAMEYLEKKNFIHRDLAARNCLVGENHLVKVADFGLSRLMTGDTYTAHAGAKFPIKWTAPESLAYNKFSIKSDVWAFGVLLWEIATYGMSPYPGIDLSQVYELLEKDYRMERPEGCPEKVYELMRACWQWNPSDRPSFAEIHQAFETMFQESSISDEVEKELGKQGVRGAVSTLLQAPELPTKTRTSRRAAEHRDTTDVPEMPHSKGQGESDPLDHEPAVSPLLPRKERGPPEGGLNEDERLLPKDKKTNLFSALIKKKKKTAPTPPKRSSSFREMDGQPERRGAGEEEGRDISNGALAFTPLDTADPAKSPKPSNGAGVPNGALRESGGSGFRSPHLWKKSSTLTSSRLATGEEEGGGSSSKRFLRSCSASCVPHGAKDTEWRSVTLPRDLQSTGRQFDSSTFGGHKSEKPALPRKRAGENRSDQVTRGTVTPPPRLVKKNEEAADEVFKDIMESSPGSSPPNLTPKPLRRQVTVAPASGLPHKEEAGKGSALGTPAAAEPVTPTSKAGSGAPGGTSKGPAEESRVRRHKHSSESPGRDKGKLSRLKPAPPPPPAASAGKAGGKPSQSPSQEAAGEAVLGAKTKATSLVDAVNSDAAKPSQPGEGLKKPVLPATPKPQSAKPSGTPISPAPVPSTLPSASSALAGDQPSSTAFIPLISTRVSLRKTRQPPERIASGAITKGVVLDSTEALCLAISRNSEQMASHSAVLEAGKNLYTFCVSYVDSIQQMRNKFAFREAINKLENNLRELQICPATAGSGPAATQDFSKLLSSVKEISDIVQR
T11 sequence (P27361 whole entry): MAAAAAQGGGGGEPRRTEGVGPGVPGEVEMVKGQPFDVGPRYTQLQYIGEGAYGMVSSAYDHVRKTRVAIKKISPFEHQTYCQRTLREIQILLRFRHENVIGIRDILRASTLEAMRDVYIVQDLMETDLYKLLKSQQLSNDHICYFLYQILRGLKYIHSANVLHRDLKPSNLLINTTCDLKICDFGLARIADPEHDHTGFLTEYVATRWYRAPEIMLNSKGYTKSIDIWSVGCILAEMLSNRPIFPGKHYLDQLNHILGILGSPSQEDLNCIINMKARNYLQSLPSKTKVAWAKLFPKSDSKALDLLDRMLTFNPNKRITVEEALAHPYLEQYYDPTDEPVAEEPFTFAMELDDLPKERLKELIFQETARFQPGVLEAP
T8 sequence (Q8NI60 163-647): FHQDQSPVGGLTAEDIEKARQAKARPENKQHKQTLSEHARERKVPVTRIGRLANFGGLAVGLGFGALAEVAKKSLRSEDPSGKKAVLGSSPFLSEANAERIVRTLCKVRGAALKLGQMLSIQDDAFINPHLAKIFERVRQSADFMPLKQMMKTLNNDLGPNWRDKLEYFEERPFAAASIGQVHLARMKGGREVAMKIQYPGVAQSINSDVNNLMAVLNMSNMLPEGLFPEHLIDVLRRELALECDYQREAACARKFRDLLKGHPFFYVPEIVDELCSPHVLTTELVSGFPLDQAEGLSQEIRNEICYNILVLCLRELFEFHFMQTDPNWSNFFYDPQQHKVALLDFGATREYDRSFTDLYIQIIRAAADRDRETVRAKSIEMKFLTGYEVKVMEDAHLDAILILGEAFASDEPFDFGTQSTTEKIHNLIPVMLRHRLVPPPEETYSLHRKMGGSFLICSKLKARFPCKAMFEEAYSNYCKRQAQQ
T3 sequence (P52333 822-1111 limits assumed): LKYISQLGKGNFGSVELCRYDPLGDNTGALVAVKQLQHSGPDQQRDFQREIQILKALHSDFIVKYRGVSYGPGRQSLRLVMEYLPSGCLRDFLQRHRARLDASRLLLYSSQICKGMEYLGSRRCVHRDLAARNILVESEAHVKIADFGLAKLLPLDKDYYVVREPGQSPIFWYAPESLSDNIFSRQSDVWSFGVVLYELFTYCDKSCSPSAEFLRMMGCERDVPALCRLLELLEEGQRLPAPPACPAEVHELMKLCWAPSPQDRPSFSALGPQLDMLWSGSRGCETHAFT
T5 sequence (P12931 whole entry): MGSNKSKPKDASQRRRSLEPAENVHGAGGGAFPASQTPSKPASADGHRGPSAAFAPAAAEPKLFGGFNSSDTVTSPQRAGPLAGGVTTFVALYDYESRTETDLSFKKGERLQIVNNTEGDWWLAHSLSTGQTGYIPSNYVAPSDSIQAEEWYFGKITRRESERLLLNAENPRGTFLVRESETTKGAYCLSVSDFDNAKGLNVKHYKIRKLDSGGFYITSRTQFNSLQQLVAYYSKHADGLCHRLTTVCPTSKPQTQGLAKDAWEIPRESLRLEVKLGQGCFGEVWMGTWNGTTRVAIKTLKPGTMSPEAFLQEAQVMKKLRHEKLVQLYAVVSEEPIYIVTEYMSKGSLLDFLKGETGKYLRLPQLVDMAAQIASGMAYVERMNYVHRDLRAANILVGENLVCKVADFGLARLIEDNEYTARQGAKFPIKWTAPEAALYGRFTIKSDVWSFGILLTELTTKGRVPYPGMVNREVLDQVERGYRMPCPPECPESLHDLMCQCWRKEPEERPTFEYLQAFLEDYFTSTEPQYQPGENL
T10 sequence (P27448 whole entry): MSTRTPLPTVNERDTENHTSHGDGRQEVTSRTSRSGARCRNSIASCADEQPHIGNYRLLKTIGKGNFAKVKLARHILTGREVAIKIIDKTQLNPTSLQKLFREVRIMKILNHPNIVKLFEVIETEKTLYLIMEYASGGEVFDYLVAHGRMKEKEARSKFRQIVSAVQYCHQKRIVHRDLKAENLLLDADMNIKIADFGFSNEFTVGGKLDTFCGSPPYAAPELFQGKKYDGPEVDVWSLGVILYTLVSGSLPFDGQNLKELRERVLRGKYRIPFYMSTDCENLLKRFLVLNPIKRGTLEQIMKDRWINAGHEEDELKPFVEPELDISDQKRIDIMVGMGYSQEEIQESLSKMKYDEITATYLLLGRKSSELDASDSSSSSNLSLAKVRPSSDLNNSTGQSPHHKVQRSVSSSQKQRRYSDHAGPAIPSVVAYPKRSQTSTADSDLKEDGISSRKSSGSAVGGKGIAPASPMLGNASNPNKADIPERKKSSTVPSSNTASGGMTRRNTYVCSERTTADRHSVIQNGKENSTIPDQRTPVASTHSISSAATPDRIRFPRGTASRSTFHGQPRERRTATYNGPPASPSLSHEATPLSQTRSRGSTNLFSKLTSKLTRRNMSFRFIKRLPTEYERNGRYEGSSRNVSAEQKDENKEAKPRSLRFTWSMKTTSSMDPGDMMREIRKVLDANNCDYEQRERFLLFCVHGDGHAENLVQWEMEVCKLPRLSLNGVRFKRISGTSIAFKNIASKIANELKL

| Compound | RA @ 1000nM (YANK3) | RA @ 10000nM (YANK3) | RA @ 1000nM (PKACα) | RA @ 10000nM (PKACα) | RA @ 1000nM [1] | RA @ 10000nM [1] | RA @ 1000nM (CSF1R) | RA @ 10000nM (CSF1R) | RA @ 1000nM (SRC) | RA @ 10000nM (SRC) | RA @ 1000nM (IGF1R) | RA @ 10000nM (IGF1R) | RA @ 1000nM (MAPKAPK2) | RA @ 10000nM (MAPKAPK2) | RA @ 1000nM (ADCK3) | RA @ 10000nM (ADCK3) | RA @ 1000nM (EPHA2) | RA @ 10000nM (EPHA2) | RA @ 1000nM (MARK3) | RA @ 10000nM (MARK3) | other results |
| --- | --- | --- | --- | --- | --- | --- | --- | --- | --- | --- | --- | --- | --- | --- | --- | --- | --- | --- | --- | --- | --- |
| CN(C)CCNC(=O)c1cc2c(cnn2CC2CCCCC2)cc1Cc1ccc(F)cc1F [Compound 95, 1-(Cyclohexylmethyl)-5-(2,4-difluorobenzyl)-N-(2-(dimethylamino)ethyl)-1H-indazole-6-carboxamide] | 100% | 100% | 100% | 94% | 100% | 100% | 100% | 79% | 100% | 93% | 100% | 93% | 100% | 100% | 100% | 81% | 100% | 100% | 79% | 86% | RA @ 1000nM (ERK1): 96%; RA @ 10000nM (ERK1): 90%; RA @ 1000nM (RAF1): 100%; RA @ 10000nM (RAF1): 100%; RA @ 1000nM (PIM1): 100%; RA @ 10000nM (PIM1): 94%; RA @ 1000nM (KIT(V559D,T670I)): 47%; RA @ 10000nM (KIT(V559D,T670I)): 94%; RA @ 1000nM (ABL1-phosphorylated): 81%; RA @ 10000nM (ABL1-phosphorylated): 85%; RA @ 1000nM (ALK): 62%; RA @ 10000nM (ALK): 92%; RA @ 1000nM (PLK1): 100%; RA @ 10000nM (PLK1): 100%; RA @ 1000nM (ZAP70): 100%; RA @ 10000nM (ZAP70): 100%; RA @ 1000nM (MEK2): 95%; RA @ 10000nM (MEK2): 100%; RA @ 1000nM (MLK1): 100%; RA @ 10000nM (MLK1): 90% |
| CC(C)Cn1ncc2cc(Cc3ccc(F)cc3F)c(C(=O)NCCN(C)C)cc21 [Compound 94, 5-(2,4-Difluorobenzyl)-N-(2-(dimethylamino)ethyl)-1-isobutyl-1H-indazole-6-carboxamide] | 100% | 100% | 100% | 96% | 100% | 100% | 100% | 86% | 100% | 94% | 94% | 84% | 100% | 84% | 100% | 100% | 97% | 100% | 100% | 100% | RA @ 1000nM (ERK1): 87%; RA @ 10000nM (ERK1): 87%; RA @ 1000nM (RAF1): 100%; RA @ 10000nM (RAF1): 100%; RA @ 1000nM (PIM1): 95%; RA @ 10000nM (PIM1): 100%; RA @ 1000nM (KIT(V559D,T670I)): 100%; RA @ 10000nM (KIT(V559D,T670I)): 100%; RA @ 1000nM (ABL1-phosphorylated): 79%; RA @ 10000nM (ABL1-phosphorylated): 53%; RA @ 1000nM (ALK): 93%; RA @ 10000nM (ALK): 83%; RA @ 1000nM (PLK1): 100%; RA @ 10000nM (PLK1): 100%; RA @ 1000nM (ZAP70): 100%; RA @ 10000nM (ZAP70): 79%; RA @ 1000nM (MEK2): 86%; RA @ 10000nM (MEK2): 80%; RA @ 1000nM (MLK1): 100%; RA @ 10000nM (MLK1): 100% |
